Measured values from PubChem BioAssay AID2060331 (Molecular Pharmacology Branch, DTP, NCI, 2025).
Several values for one entry are separate records, joined by “and”; a condition that tells them apart may be missing. Equal values may be shown once.

System: Hs578T multi-cell spheroids, viability
Test: Anticancer human tumor Hs578T cell line growth inhibition [IpAb];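 further: drug exposure lasted 7 days before readout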
Conditions: for viability, T/C: stronger effect = lower value; active means viability on the fitted dose curve at most 10% of control; inactive means the rest
Outline: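 Spheroids of 60% malignant cells, 25% HUVEC and 15% MSC were exposed to targeted agents combined with ipatasertib or abemaciclib. Doses started at or near clinical Cmax (10 microM when unknown) and fell in half-log steps.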

[1] = curve of first compound, second compound 0.1 µM
[2] = curve of first compound, second compound 0.316 µM
[3] = curve of first compound, second compound 1 µM
[4] = curve of first compound, second compound 3.16 µM
[5] = curve of first compound, second compound 10 µM
[6] = second compound 0.1 µM, first compound 0.0316 µM
[7] = second compound 0.1 µM, first compound 0.1 µM
[8] = second compound 0.1 µM, first compound 0.316 µM
[9] = second compound 0.1 µM, first compound 1 µM
[10] = second compound 0.1 µM, first compound 3.16 µM
[11] = second compound 0.1 µM, first compound 10 µM
[12] = second compound 0.316 µM, first compound 0.0316 µM
[13] = second compound 0.316 µM, first compound 0.1 µM
[14] = second compound 0.316 µM, first compound 0.316 µM
[15] = second compound 0.316 µM, first compound 1 µM
[16] = second compound 0.316 µM, first compound 3.16 µM
[17] = second compound 0.316 µM, first compound 10 µM
[18] = second compound 1 µM, first compound 0.0316 µM
[19] = second compound 1 µM, first compound 0.1 µM
[20] = second compound 1 µM, first compound 0.316 µM
[21] = second compound 1 µM, first compound 1 µM
[22] = second compound 1 µM, first compound 3.16 µM
[23] = second compound 1 µM, first compound 10 µM

Cn1nccc1Nc1nccc(-c2ccn(C(CO)c3ccc(Cl)c(F)c3)c(=O)c2)n1 (configuration not stated) + CC(C)NCC(C(=O)N1CCN(c2ncnc3c2C(C)CC3O)CC1)c1ccc(Cl)cc1
2610 nM: IC50 [2]
4560 nM: IC50 [1]
1520 nM: IC50 [3]
inactive: viability, T/C [6] 106% | viability, T/C [7] 109% | viability, T/C [8] 111% | viability, T/C [9] 76.8% | viability, T/C [10] 59.4% | viability, T/C [11] 37.9% | viability, T/C [12] 91.5% | viability, T/C [13] 90.5% | viability, T/C [14] 94.3% | viability, T/C [15] 60.9% | viability, T/C [16] 50.9% | viability, T/C [17] 23.6% | viability, T/C [18] 65.8% | viability, T/C [19] 73.5% | viability, T/C [20] 77.7% | viability, T/C [21] 54.3% | viability, T/C [22] 36.2% | viability, T/C [23] 14.1% | viability, T/C (second compound 3.16 µM, first compound 0.0316 µM) 62.2% | viability, T/C (second compound 3.16 µM, first compound 0.1 µM) 61.6% | viability, T/C (second compound 3.16 µM, first compound 0.316 µM) 61.7% | viability, T/C (second compound 3.16 µM, first compound 1 µM) 42.4% | viability, T/C (second compound 3.16 µM, first compound 3.16 µM) 16.3% | viability, T/C (second compound 10 µM, first compound 0.0316 µM) 48.1% | viability, T/C (second compound 10 µM, first compound 0.1 µM) 55.6% | viability, T/C (second compound 10 µM, first compound 0.316 µM) 45.6% | viability, T/C (second compound 10 µM, first compound 1 µM) 31.1%
626 nM: IC50 [4]
138 nM: IC50 [5]
active: viability, T/C (second compound 3.16 µM, first compound 10 µM) 2.55% | viability, T/C (second compound 10 µM, first compound 3.16 µM) 3.87% | viability, T/C (second compound 10 µM, first compound 10 µM) 0.64%

Cn1nccc1Nc1nccc(-c2ccn(C(CO)c3ccc(Cl)c(F)c3)c(=O)c2)n1 (configuration not stated)
inactive: viability, T/C (compound 0.0316 µM) 104% and 107% | viability, T/C (compound 0.1 µM) 114% and 115% | viability, T/C (compound 0.316 µM) 118% and 128% | viability, T/C (compound 1 µM) 90.7% and 94% | viability, T/C (compound 3.16 µM) 70.3% and 65.2% | viability, T/C (compound 10 µM) 24.4% and 35.9%
5130 nM and 5580 nM: IC50 (curve of compound)

CC(=O)c1c(C)c2cnc(Nc3ccc(N4CCNCC4)cn3)nc2n(C2CCCC2)c1=O + CC(C)NCC(C(=O)N1CCN(c2ncnc3c2C(C)CC3O)CC1)c1ccc(Cl)cc1
inactive: viability, T/C (second compound 0.1 µM, first compound 0.000949 µM) 96.7% | viability, T/C (second compound 0.1 µM, first compound 0.003 µM) 86.1% | viability, T/C (second compound 0.1 µM, first compound 0.00949 µM) 83.3% | viability, T/C (second compound 0.1 µM, first compound 0.03 µM) 71.4% | viability, T/C (second compound 0.1 µM, first compound 0.0949 µM) 64.2% | viability, T/C (second compound 0.1 µM, first compound 0.3 µM) 60.1% | viability, T/C (second compound 0.316 µM, first compound 0.000949 µM) 92.7% | viability, T/C (second compound 0.316 µM, first compound 0.003 µM) 79.7% | viability, T/C (second compound 0.316 µM, first compound 0.00949 µM) 70.3% | viability, T/C (second compound 0.316 µM, first compound 0.03 µM) 62.3% | viability, T/C (second compound 0.316 µM, first compound 0.0949 µM) 59.4% | viability, T/C (second compound 0.316 µM, first compound 0.3 µM) 49.5% | viability, T/C (second compound 1 µM, first compound 0.000949 µM) 62.7% | viability, T/C (second compound 1 µM, first compound 0.003 µM) 67.7% | viability, T/C (second compound 1 µM, first compound 0.00949 µM) 56.1% | viability, T/C (second compound 1 µM, first compound 0.03 µM) 48.6% | viability, T/C (second compound 1 µM, first compound 0.0949 µM) 43% | viability, T/C (second compound 1 µM, first compound 0.3 µM) 47.2% | viability, T/C (second compound 3.16 µM, first compound 0.000949 µM) 55.6% | viability, T/C (second compound 3.16 µM, first compound 0.003 µM) 58.8% | viability, T/C (second compound 3.16 µM, first compound 0.00949 µM) 52.8% | viability, T/C (second compound 3.16 µM, first compound 0.03 µM) 41.2% | viability, T/C (second compound 3.16 µM, first compound 0.0949 µM) 42.3% | viability, T/C (second compound 3.16 µM, first compound 0.3 µM) 38.8% | viability, T/C (second compound 10 µM, first compound 0.000949 µM) 48.7% | viability, T/C (second compound 10 µM, first compound 0.003 µM) 47.5% | viability, T/C (second compound 10 µM, first compound 0.00949 µM) 41.7% | viability, T/C (second compound 10 µM, first compound 0.03 µM) 35.5% | viability, T/C (second compound 10 µM, first compound 0.0949 µM) 35.6% | viability, T/C (second compound 10 µM, first compound 0.3 µM) 37.3%
< 0.949 nM: IC50 [5]
20 nM: IC50 [3]
11.1 nM: IC50 [4]
> 300 nM: IC50 [1] | IC50 [2]

C=CCn1c(=O)c2cnc(Nc3ccc(N4CCN(C)CC4)cc3)nc2n1-c1cccc(C(C)(C)O)n1 + CCN1CCN(Cc2ccc(Nc3ncc(F)c(-c4cc(F)c5nc(C)n(C(C)C)c5c4)n3)nc2)CC1
459 nM: IC50 [1]
366 nM: IC50 (curve of first compound, second compound 0.01 µM)
376 nM: IC50 (curve of first compound, second compound 0.0316 µM)
1260 nM: IC50 [2]
2140 nM: IC50 [3]
inactive: viability, T/C (second compound 0.01 µM, first compound 0.0316 µM) 92.1% | viability, T/C (second compound 0.01 µM, first compound 0.1 µM) 86.3% | viability, T/C (second compound 0.01 µM, first compound 0.316 µM) 51.9% | viability, T/C (second compound 0.01 µM, first compound 1 µM) 27.9% | viability, T/C (second compound 0.01 µM, first compound 3.16 µM) 16.8% | viability, T/C (second compound 0.01 µM, first compound 10 µM) 17.2% | viability, T/C (second compound 0.0316 µM, first compound 0.0316 µM) 86.3% | viability, T/C (second compound 0.0316 µM, first compound 0.1 µM) 75.3% | viability, T/C (second compound 0.0316 µM, first compound 0.316 µM) 53% | viability, T/C (second compound 0.0316 µM, first compound 1 µM) 31.9% | viability, T/C (second compound 0.0316 µM, first compound 3.16 µM) 21.2% | viability, T/C (second compound 0.0316 µM, first compound 10 µM) 17.4% | viability, T/C [6] 82.6% | viability, T/C [7] 72.2% | viability, T/C [8] 57.1% | viability, T/C [9] 36.4% | viability, T/C [10] 24.9% | viability, T/C [11] 19.2% | viability, T/C [12] 80.4% | viability, T/C [13] 76.9% | viability, T/C [14] 69% | viability, T/C [15] 55.6% | viability, T/C [16] 32.3% | viability, T/C [17] 21.4% | viability, T/C [18] 94.4% | viability, T/C [19] 92.9% | viability, T/C [20] 79.4% | viability, T/C [21] 65% | viability, T/C [22] 42.5% | viability, T/C [23] 24%
